Data as given in US20260209248A1, “INHIBITORS OF KIF18A AND USES THEREOF” (Insilico Medicine IP Limited, priority 2022, published 2026).

These compounds were tested against T1, KIF18A (Homo sapiens, UniProt Q8NI77) (assay: KIF18A Assay (ADP Glo luminescence)). Settings: enzyme pre-incubated 15 min at 25° C., ATP reaction 60 min, 10 pts 1:3 dilution.
T1 sequence (Q8NI77 1-898): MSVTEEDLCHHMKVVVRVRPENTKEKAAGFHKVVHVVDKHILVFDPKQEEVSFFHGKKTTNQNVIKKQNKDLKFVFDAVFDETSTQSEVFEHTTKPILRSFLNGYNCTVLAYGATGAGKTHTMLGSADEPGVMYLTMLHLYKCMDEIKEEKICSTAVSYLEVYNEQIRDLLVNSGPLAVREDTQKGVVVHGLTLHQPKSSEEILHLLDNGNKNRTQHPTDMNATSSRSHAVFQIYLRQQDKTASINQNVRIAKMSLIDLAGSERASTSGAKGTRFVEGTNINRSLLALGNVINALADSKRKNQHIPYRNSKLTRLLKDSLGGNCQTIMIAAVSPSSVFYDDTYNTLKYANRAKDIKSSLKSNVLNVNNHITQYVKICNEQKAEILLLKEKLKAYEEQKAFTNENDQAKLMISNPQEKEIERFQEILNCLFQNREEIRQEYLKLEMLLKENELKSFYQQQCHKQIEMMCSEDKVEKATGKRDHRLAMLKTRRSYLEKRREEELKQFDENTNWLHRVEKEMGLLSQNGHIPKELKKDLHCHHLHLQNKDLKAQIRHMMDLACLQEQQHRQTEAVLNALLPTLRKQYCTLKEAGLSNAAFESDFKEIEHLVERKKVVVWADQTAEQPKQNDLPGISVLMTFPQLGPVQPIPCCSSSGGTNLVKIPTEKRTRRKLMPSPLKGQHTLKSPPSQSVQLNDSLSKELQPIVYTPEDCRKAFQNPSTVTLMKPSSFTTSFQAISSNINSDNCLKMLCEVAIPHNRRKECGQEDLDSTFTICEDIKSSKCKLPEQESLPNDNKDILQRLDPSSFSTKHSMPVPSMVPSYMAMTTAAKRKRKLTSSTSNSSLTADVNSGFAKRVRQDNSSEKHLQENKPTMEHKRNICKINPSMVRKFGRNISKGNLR
Type: biochemical
Procedure: The KIF18A assay was performed as follows:
1.1. Prepared 1× kinase Buffer 1.2. […] 1.3. Data analysis−Calculated IC50 and plot dose-response curve of compounds: • Calculated IC50 by fitting % Inhibition values and log of compound concentrations to nonlinear regression (dose response−variable slope) with GraphPad 6.0.
[formula] • X: log of inhibitor concentration; Y: % Inhibition

Row | Structure (SMILES) | IC50 [nM]
1 | O=C(Nc1ccc(=O)n(C2CCOCC2)n1)c1ccc(NS(=O)(=O)CCO)cc1N1CCC2(CC1)CC2 [EX05, 4-((2-hydroxyethyl)sulfonamido)-N-(6-oxo-1-(tetrahydro-2H-pyran-4-yl)-1,6-dihydropyridazin-3-yl)-2-(6-azaspiro[2.5]octan-6-yl)benzamide] | 50 to 500
2 | O=C(Nc1ccc2c(n1)N1CCOCC1CO2)c1ccc(NS(=O)(=O)CCO)cc1N1CCC2(CC1)CC2 (stereo not drawn) [EX03, 4-((2-hydroxyethyl)sulfonamido)-2-(6-azaspiro[2.5]octan-6-yl)-N-(6a,7,9,10-tetrahydro-6H-[1,4]oxazino[4,3-d]pyrido[3,2-b][1,4]oxazin-2-yl)benzamide] | < 50
3 | CN1CCCOc2c(NC(=O)c3ccc(NS(=O)(=O)CCO)cc3N3CCC4(CC3)CC4)ccnc21 [EX02, 4-((2-hydroxyethyl)sulfonamido)-N-(5-methyl-2,3,4,5-tetrahydropyrido[3,2-b][1,4]oxazepin-9-yl)-2-(6-azaspiro[2.5]octan-6-yl)benzamide] | < 50
4 | O=C(Nc1ccc(=O)n(CCCC(F)(F)F)n1)c1ccc(NS(=O)(=O)CCO)cc1N1CCC2(CC1)CC2 [EX08, 4-((2-hydroxyethyl)sulfonamido)-N-(6-oxo-1-(4,4,4-trifluorobutyl)-1,6-dihydropyridazin-3-yl)-2-(6-azaspiro[2.5]octan-6-yl)benzamide] | < 50
5 | O=C(Nc1ccnc2c1OCC1COCCN21)c1ccc(NS(=O)(=O)CCO)cc1N1CCC2(CC1)CC2 (stereo not drawn) [EX01, 4-((2-hydroxyethyl)sulfonamido)-2-(6-azaspiro[2.5]octan-6-yl)-N-(6a,7,9,10-tetrahydro-6H-[1,4]oxazino[4,3-d]pyrido[3,2-b][1,4]oxazin-4-yl)benzamide] | < 50
6 | O=C(Nc1cccn(CCCC(F)(F)F)c1=O)c1ccc(NS(=O)(=O)CCO)cc1N1CCC2(CC1)CC2 [EX04, 4-((2-hydroxyethyl)sulfonamido)-N-(2-oxo-1-(4,4,4-trifluorobutyl)-1,2-dihydropyridin-3-yl)-2-(6-azaspiro[2.5]octan-6-yl)benzamide] | 50 to 500
7 | O=C(Nc1ccc2c(n1)N1CCC(F)(F)CC1CO2)c1ccc(NS(=O)(=O)CCO)cc1N1CCC2(CC1)CC2 (stereo not drawn) [EX07, N-(8,8-difluoro-6,6a,7,8,9,10-hexahydrodipyrido[3,2-b:1′,2′-d][1,4]oxazin-2-yl)-4-((2-hydroxyethyl)sulfonamido)-2-(6-azaspiro[2.5]octan-6-yl)benzamide] | < 50
8 | O=C(Nc1ccc(=O)n(C2CCOCC2)c1)c1ccc(NS(=O)(=O)CCO)cc1N1CCC2(CC1)CC2 [EX06, 4-((2-hydroxyethyl)sulfonamido)-N-(6-oxo-1-(tetrahydro-2H-pyran-4-yl)-1,6-dihydropyridin-3-yl)-2-(6-azaspiro[2.5]octan-6-yl)benzamide] | 500 to 15000

More lines, now with the values ahead:

Row | IC50 [nM] | Structure (SMILES)
9 | 500 to 15000 | Cc1cc(NC(=O)c2cc3c(cc2N2CCC4(CC2)CC4)N(C(=O)CCO)CC3)nc(N2CCC(F)(F)CC2)n1 [EX25, N-(2-(4,4-difluoropiperidin-1-yl)-6-methylpyrimidin-4-yl)-1-(3-hydroxypropanoyl)-6-(6-azaspiro[2.5]octan-6-yl)indoline-5-carboxamide]
10 | < 50 | O=C(Nc1ccc(=O)n(C2CC(F)(F)C2)n1)c1cc2c(cc1N1CCC3(CC1)CC3)N(S(=O)(=O)CCO)CC2 [EX18, N-(1-(3,3-difluorocyclobutyl)-6-oxo-1,6-dihydropyridazin-3-yl)-1-((2-hydroxyethyl)sulfonyl)-6-(6-azaspiro[2.5]octan-6-yl)indoline-5-carboxamide]
11 | 50 to 500 | Cc1cc(NC(=O)c2cc3c(cc2N2CCC4(CC2)CC4)N(S(C)(=O)=O)CC3)nc(N2CCC(F)(F)CC2)n1 [EX20, N-(2-(4,4-difluoropiperidin-1-yl)-6-methylpyrimidin-4-yl)-1-(methylsulfonyl)-6-(6-azaspiro[2.5]octan-6-yl)indoline-5-carboxamide]
12 | < 50 | CC(C)n1nc(NC(=O)c2cc3c(cc2N2CCC4(CC2)CC4)N(S(=O)(=O)CCO)CC3)ccc1=O [EX22, 1-((2-hydroxyethyl)sulfonyl)-N-(1-isopropyl-6-oxo-1,6-dihydropyridazin-3-yl)-6-(6-azaspiro[2.5]octan-6-yl)indoline-5-carboxamide]
13 | < 50 | O=C(Nc1ccnc2c1OCC1CC(F)(F)CCN21)c1ccc(NS(=O)(=O)CCO)cc1N1CCC2(CC1)CC2 (stereo not drawn) [EX10, N-(8,8-difluoro-6,6a,7,8,9,10-hexahydrodipyrido[3,2-b:1′,2′-d][1,4]oxazin-4-yl)-4-((2-hydroxyethyl)sulfonamido)-2-(6-azaspiro[2.5]octan-6-yl)benzamide]
14 | < 50 | Cc1cc(NC(=O)c2cc3c(cc2N2CCC4(CC2)CC4)N(S(=O)(=O)CCO)CC3)nc(N2CCC(F)(F)CC2)n1 [EX15, N-(2-(4,4-difluoropiperidin-1-yl)-6-methylpyrimidin-4-yl)-1-((2-hydroxyethyl)sulfonyl)-6-(6-azaspiro[2.5]octan-6-yl)indoline-5-carboxamide]
15 | < 50 | O=C(Nc1ccc(=O)n(C2CCC(F)(F)CC2)n1)c1cc2c(cc1N1CCC3(CC1)CC3)N(S(=O)(=O)CCO)CC2 [EX21, N-(1-(4,4-difluorocyclohexyl)-6-oxo-1,6-dihydropyridazin-3-yl)-1-((2-hydroxyethyl)sulfonyl)-6-(6-azaspiro[2.5]octan-6-yl)indoline-5-carboxamide]
16 | 500 to 15000 | COCCS(=O)(=O)N1CCc2cc(C(=O)Nc3cccc(N4CCOCC4)n3)c(N3CCC4(CC3)CC4)cc21 [EX13, 1-((2-methoxyethyl)sulfonyl)-N-(6-morpholinopyridin-2-yl)-6-(6-azaspiro[2.5]octan-6-yl)indoline-5-carboxamide]
17 | < 50 | O=C(Nc1ccnc2c1OCC1CC(F)(F)CCN21)c1cc2c(cc1N1CCC3(CC1)CC3)N(S(=O)(=O)CCO)CC2 (stereo not drawn) [EX19, N-(8,8-difluoro-6,6a,7,8,9,10-hexahydrodipyrido[3,2-b:1′,2′-d][1,4]oxazin-4-yl)-1-((2-hydroxyethyl)sulfonyl)-6-(6-azaspiro[2.5]octan-6-yl)indoline-5-carboxamide]
18 | < 50 | O=C(Nc1cccc(N2CCOCC2)n1)c1cc2c(cc1N1CCC3(CC1)CC3)N(S(=O)(=O)CCO)CC2 [EX14, 1-((2-hydroxyethyl)sulfonyl)-N-(6-morpholinopyridin-2-yl)-6-(6-azaspiro[2.5]octan-6-yl)indoline-5-carboxamide]
